Results from ChEMBL document CHEMBL1142843, “Synthesis and evaluation of a series of tropane analogues as novel vesicular monoamine transporter-2 ligands” (Bioorg Med Chem Lett, 2005).

How the values were obtained:
[1] = target: Neuronal acetylcholine receptor alpha7 (Rattus norvegicus); assay: Inhibition constant against [3H]methyllycaconitine binding to alpha7 nicotinic acetylcholine receptor of rat brain membranes
[2] = target: Neuronal acetylcholine receptor alpha4beta2 (Rattus norvegicus); assay: Inhibition constant against [3H]nicotine binding to alpha4beta2 nicotinic acetylcholine receptor of rat brain membranes
[3] = target: T1, Synaptic vesicular amine transporter (Rattus norvegicus, UniProt Q01827); assay: Inhibition constant against [3H]dihydrotetrabenazine binding to vesicular monoamine transporter-2 of rat synaptic vesicle membranes
T1 sequence (Q01827 whole entry): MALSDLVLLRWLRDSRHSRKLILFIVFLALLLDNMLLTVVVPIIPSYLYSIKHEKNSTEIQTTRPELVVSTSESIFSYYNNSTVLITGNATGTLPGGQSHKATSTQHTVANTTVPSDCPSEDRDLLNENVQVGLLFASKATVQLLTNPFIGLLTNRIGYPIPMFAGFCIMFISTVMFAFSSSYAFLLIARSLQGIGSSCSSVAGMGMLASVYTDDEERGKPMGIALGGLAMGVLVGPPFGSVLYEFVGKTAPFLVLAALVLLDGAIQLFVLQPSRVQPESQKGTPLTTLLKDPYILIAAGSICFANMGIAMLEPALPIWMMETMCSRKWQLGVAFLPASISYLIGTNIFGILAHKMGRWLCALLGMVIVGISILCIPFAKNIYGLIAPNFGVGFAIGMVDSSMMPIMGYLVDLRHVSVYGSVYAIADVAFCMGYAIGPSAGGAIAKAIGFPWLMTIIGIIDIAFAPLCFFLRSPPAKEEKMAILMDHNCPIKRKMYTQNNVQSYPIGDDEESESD

[4] = target: T1, Synaptic vesicular amine transporter; assay: Inhibition constant against [3H]methyllycaconitine binding to vesicular monoamine transporter-2 of rat brain membranes
[5] = target: T1, Synaptic vesicular amine transporter; assay: Inhibition constant against [3H]nicotine binding to vesicular monoamine transporter-2 of rat brain membranes

Compound	Ki [1] [µM]	Ki [2] [µM]	Ki [3] [µM]	Ki [4] [µM]	Ki [5] [µM]
CN1C2CCC1[C@H](Cc1ccccc1)CC2 (stereo partly drawn)	14	> 6.57	> 100	–	–
COc1ccc(CC2=C[C@H](Cc3ccc(OC)cc3)C3CCC2N3C)cc1 (stereo partly drawn)	> 100	> 100	4.8	–	–
CN1C2CCC1[C@@H](Cc1ccccc1)C(=O)[C@H]2Cc1ccccc1	> 100	> 100	> 100	–	–
CN1C2CCC1[C@@H](Cc1ccccc1)C[C@H]2Cc1ccccc1	> 100	> 100	> 100	–	–
CN1C2CC=C(Cc3ccccc3)C1CC2 (stereo not drawn)	15.2	1.84	> 100	–	–
COc1ccc(C[C@@H]2C[C@H](Cc3ccc(OC)cc3)C3CCC2N3C)cc1	> 100	> 100	3.88	–	–
CN1C2CCC1[C@@H](Cc1ccccc1)C(O)[C@H]2Cc1ccccc1 (stereo in doubt; 7b)	–	–	> 100	> 100	> 100
CN1C2CCC1[C@@H](CCCc1ccccc1)C[C@H]2CCCc1ccccc1	> 100	> 100	3.95	–	–
CN1C2CCC1[C@@H](Cc1ccc(F)cc1)C=C2Cc1ccc(F)cc1 (stereo partly drawn)	> 100	> 100	1.38	–	–
CN1C2CCC1[C@@H](Cc1ccc(F)cc1)C[C@H]2Cc1ccc(F)cc1	> 100	> 100	> 100	–	–
CN1C2CCC1[C@@H](Cc1ccccc1)C(O)[C@H]2Cc1ccccc1 (stereo in doubt; 7a)	> 100	> 100	> 100	–	–
